Measurements taken from PMC6009932, “Small molecule purine and pseudopurine derivatives: synthesis, cytostatic evaluations and investigation of growth inhibitory effect in non-small cell lung cancer A549” (Journal of Enzyme Inhibition and Medicinal Chemistry, 2017).

Assays:
[1] = test system: CFPAC-1 (ductal pancreatic adenocarcinoma); experiment: Proliferation assay (MTT, 72 h) on CFPAC-1; format: cell-based; details: Homo sapiens
Method: (§1) Human carcinoma cell lines A549 (lung carcinoma), HeLa (cervical carcinoma), SW620 (colorectal adenocarcinoma, metastatic), and CFPAC-1 (pancreatic cancer, derived from metastatic: liver), normal human lung (WI38) and foreskin (HFF-1) fibroblasts were obtained from the American Type Culture Collection (ATCC). Cells were cultured in humidified atmosphere at 37 °C with 5% CO2. As growth medium, Dulbecco’s modified Eagle medium (DMEM) was used with the addition of foetal bovine serum (10%), L-glutamine (2 mM) and antibiotics: streptomycin (100 µg/ml) and penicillin (100 U/ml).
(§2) Cells were seeded onto 96-well microtiter plates at a seeding density of 3000 cells/well for carcinoma cell lines, and 5000 cells/well for normal human fibroblasts. The next day, cells were treated with test agents in five different concentrations (0.01–100 µM) and further incubated for 72 h. […] Following 72 h incubation, the MTT assay was performed and measured absorbances were transformed into percentage of cell growth as described previously. Results were obtained from three independent experiments. IC50 values were calculated using linear regression analysis and results were statistically analysed by ANOVA, Tukey post-hoc test (p < .05).

[2] = test system: SW620 (colorectal adenocarcinoma, metastatic); experiment: Proliferation assay (MTT, 72 h) on SW620; format: cell-based; details: Homo sapiens, SW-620
Method: as §1, §2

A549 (lung carcinoma) = experiment: Proliferation assay (MTT, 72 h) on A549; format: cell-based; details: Homo sapiens, A549 lung adenocarcinoma
Method: as §1, §2

[3] = test system: WI38 normal human lung fibroblasts; experiment: Proliferation assay (MTT, 72 h) on normal lung fibroblasts WI38; format: cell-based; details: WI-38, read-out: IC50 WI38/HFF-1 (WI38)
Method: as §1, §2

[4] = test system: HeLa (cervical carcinoma); experiment: Proliferation assay (MTT, 72 h) on HeLa; format: cell-based; details: Homo sapiens
Method: as §1, §2

[5] = test system: HFF-1 normal human foreskin fibroblasts; experiment: Proliferation assay (MTT, 72 h) on normal foreskin fibroblasts HFF-1; format: cell-based; details: compounds 11a–e tested in HFF-1 cell line, read-out: IC50 WI38/HFF-1 (HFF-1)
Method: as §1, §2

A549 cells = experiment: Annexin V-FITC assay for apoptosis detection; format: cell-based, human
Method: Staining of the cells was performed by Annexin-V-FITC Staining kit (Santa Cruz Biotechnology, Dallas, TX) according to the manufacturer’s instructions. Cells were visualised by fluorescent microscope (Olympus) at magnification of 40×.
Further biological evaluations of compound 12b which was identified as a candidate were performed in order to investigate whether its antiproliferative effect in non-small cell lung cancer (A549) could be associated with induction of apoptosis.

GPLD1 = experiment: Western blot analysis of GPLD1 in A549 cells; format: cell-based, human; details: A549, 2 × IC50, 48 h
Method: (§3) Cells were seeded in 6-well plates in the concentration depending on tested cell line varying from 1 × 10^5 to 2 × 10^5 cells/well. […] Following treatment, cells were lysed with RIPA buffer supplemented with protease and phosphatase inhibitors (Roche). Total proteins (50 µg) were resolved on 10 or 12% polyacrilamide gels, depending on protein size, and transferred onto PVDF membranes that were blocked for 1 h with either 4% BSA or 5% non-fat milk prepared in tris-buffered saline (TBST). Membranes were probed with primary antibodies against GPLD1 (Abcam), PDGFRβ, p-IGF-1Rβ, p-p38 MAPK, and p-NF-κB-p65 from cell signalling technology at 4 °C overnight. The next day, membranes were washed in TBST and probed with horseradish peroxidase-conjugated secondary antibodies goat anti-mouse (Santa Cruz Biotechnology) or goat anti-rabbit (Santa Cruz Biotechnology). Protein bands were visualised using chemiluminescence substrate and ImageQuant LAS 500 (GE Healthcare, Chicago, IL). Following visualisation, protein band density was analysed by Quantity One 1-D Analysis Software (Bio-Rad, Hercules, CA).

PDGFRβ = experiment: Western blot analysis of PDGFR in A549 cells; format: cell-based, human; details: A549, 2 × IC50, 48 h
Method: as §3

p-NF-κB-p65 = experiment: Western blot analysis of p-NF-κB-p65 in A549 cells; format: cell-based, human; details: A549, 2 × IC50, 48 h
Method: as §3

p-p38 MAPK = experiment: Western blot analysis of p-p38 MAPK in A549 cells; format: cell-based, human; details: A549, 2 × IC50, 48 h
Method: as §3

p-IGF-1Rβ = experiment: Western blot analysis of p-IGF-1Rβ in A549 cells; format: cell-based, human; details: A549, 2 × IC50, 48 h
Method: as §3

[6] = A549, 48 h, 2 × IC50, versus control

IC50 [1] [µM]	IC50 [2] [µM]	IC50 (A549 (lung carcinoma)) [µM]	melting point [°C]	IC50 [4] [µM]	Structure (SMILES)	IC50 [3] [µM]	IC50 [5] [µM]	Secondary necrotic cells (A549 cells; A549, 48 h, 2 × IC50, PI+) [%]	Late apoptotic/Primary necrotic cells (A549 cells; A549, 48 h, 2 × IC50, PI+/Ann V+) [%]	Early apoptotic cells (A549 cells; A549, 48 h, 2 × IC50, PI−/Ann V+) [%]	Viable cells (A549 cells; A549, 48 h, 2 × IC50, PI−/Ann V−) [%]	increase in early apoptotic cell population (A549 cells; [6]) [%]	increase in late apoptotic/necrotic cell population (A549 cells; [6]) [%]	induction of apoptosis (A549 cells; A549 cells)	expression level of GPLD1 protein (GPLD1)	expression of PDGFR (PDGFRβ)	p-NF-κB-p65 subunit expression level (p-NF-κB-p65)	expression level of p-p38 MAP kinase (p-p38 MAPK)	expression of p-IGF-1Rβ (p-IGF-1Rβ)
64.7	54.2	71.6	151 to 154	53	Fc1ccc2c(ccn2Cc2cn(-c3ccc(C(F)(F)F)cc3)nn2)c1 [Compound 10c, 5-Fluoro-1-{[1–(4-(trifluoromethyl)phenyl)-1 H-1,2,3-triazol-4-yl]methyl}-1 H-indole]	24													
77.1	57.6	51.9	181 to 184	47.6	O=c1cc(Cn2cc(Cn3ccc4cc(F)ccc43)nn2)c2ccc(O)cc2o1 [Compound 10e, 4-{[4-((5-Fluoro-1H-indol-1-yl)methyl)-1H-1,2,3-triazol-1-yl]methyl}-7-hydroxy-2H-chromen-2-one]	45.7													
> 100	43.3	44		> 100	Fc1ccc(-n2cc(Cn3ccc4ccccc43)nn2)cc1 [Compound 11a, 1-{[1-(4-Fluorophenyl)-1H-1,2,3-triazol-4-yl]methyl}-1H-indole]		> 100												
> 100	> 100	> 100		> 100	Clc1ccc(-n2cc(Cn3ccc4ccccc43)nn2)cc1 [Compound 11b, 1-{[1-(4-Chlorophenyl)-1H-1,2,3-triazol-4-yl]methyl}-1H-indole]		> 100												
> 100	> 100	> 100		> 100	FC(F)(F)c1ccc(-n2cc(Cn3ccc4ccccc43)nn2)cc1 [Compound 11c, 1-{[1-(4-(Trifluoromethyl)phenyl)-1H-1,2,3-triazol-4-yl]methyl}-1H-indole]		> 100												
85.6	44.8	51.3		71.2	Fc1ccccc1-n1cc(Cn2ccc3ccccc32)nn1 [Compound 11d, 1-{[1-(2-Fluorophenyl)-1H-1,2,3-triazol-4-yl]methyl}-1H-indole]		40.4												
> 100	68.5	75.4	155 to 158	83	O=c1cc(Cn2cc(Cn3ccc4ccccc43)nn2)c2ccc(O)cc2o1 [Compound 11e, 4-{[4-((1H-Indol-1-yl)methyl)-1H-1,2,3-triazol-1-yl]methyl}-7-hydroxy-2 H-chromen-2-one]		40												

Structure (SMILES)	IC50 [1] [µM]	IC50 [2] [µM]	IC50 (A549 (lung carcinoma)) [µM]	melting point [°C]	IC50 [4] [µM]	IC50 [3] [µM]	IC50 [5] [µM]	Secondary necrotic cells (A549 cells; A549, 48 h, 2 × IC50, PI+) [%]	Late apoptotic/Primary necrotic cells (A549 cells; A549, 48 h, 2 × IC50, PI+/Ann V+) [%]	Early apoptotic cells (A549 cells; A549, 48 h, 2 × IC50, PI−/Ann V+) [%]	Viable cells (A549 cells; A549, 48 h, 2 × IC50, PI−/Ann V−) [%]	increase in early apoptotic cell population (A549 cells; [6]) [%]	increase in late apoptotic/necrotic cell population (A549 cells; [6]) [%]	induction of apoptosis (A549 cells; A549 cells)	expression level of GPLD1 protein (GPLD1)	expression of PDGFR (PDGFRβ)	p-NF-κB-p65 subunit expression level (p-NF-κB-p65)	expression level of p-p38 MAP kinase (p-p38 MAPK)	expression of p-IGF-1Rβ (p-IGF-1Rβ)
Clc1ccc(-n2cc(Cn3cnc4ccccc43)nn2)cc1 [Compound 12b, 1-{[1-(4-chlorophenyl)-1H-1,2,3-triazol-4-yl]methyl}-1H-benzo[d]imidazole]	52.6	91.2	0.79		42.2	38.1		2.39	19.76	31.14	46.71	30.62	19.76	induced apoptosis	dramatically reduced	downregulated	significant reduction	marked decline	downregulated
